{"source": "patent US12186303B2", "about": "“Feed additive for cattle comprising n-acetyl-l-tryptophan as active ingredient” (CJ CHEILJEDANG CORPORATION, priority 2018, dated 2025)", "test_system": "genes related to fat differentiation (PPARr, CEBPa, FABP4, LPL, and SCD) and muscle differentiation (MYF6, MyoD, and MyoG) of the loin tissue", "experiment": "Real-time PCR of gene expression related to loin tissue development under heat stress conditions", "type": "in vivo, Korean native cattle", "from_the_text": "After grouping the animals by statistical analysis of initial body weights, the animals were bred in 1.0×1.5 m^2 individual pens during the experiment period. The feed was offered based on an amount of dry matter of daily total mixed ration (TMR) per head. After 7 days of an adaptation period for N-acetyl-L-tryptophan (NALT), a mixture of 0.1% N-acetyl-L-tryptophan (NALT) and the total mixed ration was fed to individual animals every morning at 8 a.m. for 6 weeks, and water was available ad libitum. Total amounts of L-tryptophan ingested by the control and the experimental group (NALT-treated group) by feeding NALT were 6.0 g/day/head and 18.2 g/day/head, respectively. The experiment was performed such that the NALT-treated group ingested 12.2 g/day/head more L-tryptophan than the control. Meanwhile, results of growth performance analysis (body weight and average feed intake) and genetic analysis of loin tissue were obtained by statistically comparing and analyzing significant differences between the control and the NALT-treated group, and results of hematological analysis were obtained via statistical comparison and analysis depending on NALT treatment, experiment period (days), and interaction (treatment×days). These numerical values were expressed as average values, and a significance test was performed at the 5% level using Student's t-test by using a JMP 5.0 software package (SAS Institute Inc., Cary, NC, USA). Samples of loin tissue of the sentinel animals were obtained on the final day of the experiment (week 10). The samples were obtained using a biopsy gun for animals (TNT Research Co., Ltd., Gyeonggi-do, Republic of Korea), added to a 2 mL tube, and incubated in liquid nitrogen gas. After extraction of RNA from each tissue sample, real-time PCR was conducted to analyze expression levels of genes related to fat differentiation (PPARr, CEBPa, FABP4, LPL, and SCD) and muscle differentiation (MYF6, MyoD, and MyoG) of the loin tissue of each animal. Total RNA was isolated using the TRIzol RNA isolation protocol, and the amount of RNA was measured using a NanoDrop 1000 (Thermo Scientific, Seoul, Republic of Korea). The RNA integrity (RIN) was estimated using an RNA Nano 6000 Assay Kit of the Agilent Bioanalyzer 2100 system (Agilent Technologies, Richardson, USA), and an obtained RNA integrity number (RIN) was 6.5±0.27. After synthesizing cDNA from mRNA, real-time PCR was conducted to measure expression levels of the genes.", "key": {"[1]": {"details": "0.1% NALT, week 10, control = 1.00000"}}, "data": [{"smiles": "CC(=O)N[C@@H](Cc1c[nH]c2ccccc12)C(=O)O", "note": "[NALT, N-acetyl-L-tryptophan]", "values": [{"measurement": "Gene expression level of SCD compared to the control", "value": "tended to be higher"}, {"measurement": "C/EBPα expression level in loin tissue", "setting": "[1]", "value": 0.8053}, {"measurement": "FABP4 expression level in loin tissue", "setting": "[1]", "value": 1.501}, {"measurement": "LPL expression level in loin tissue", "setting": "[1]", "value": 1.774}, {"measurement": "MYF6 expression level in loin tissue", "setting": "[1]", "value": 1.093}, {"measurement": "MyoD expression level in loin tissue", "setting": "[1]", "value": 1.045}, {"measurement": "MyoG expression level in loin tissue", "setting": "[1]", "value": 2.086}, {"measurement": "PPARγ expression level in loin tissue", "setting": "[1]", "value": 1.301}, {"measurement": "SCD expression level in loin tissue", "setting": "[1]", "value": 1.448}, {"measurement": "Expression levels of MYF6 and MyoG and of lipolysis/fat transport genes (FABP4 and LPL) in loin tissue compared to the control", "setting": "p<0.05", "value": "higher"}, {"measurement": "Expression of muscle differentiation-related gene (MyoD) and fat differentiation-related genes (C/EBPα and PPARγ) compared to the control", "setting": "p>0.05", "value": "No statistically significant difference"}]}]}
